Laboratory results as given in patent US7053043B1, “Pharmaceutical compositions comprising synthetic peptide copolymers and methods for preventing and treating GVHD and HVGD” (Yeda Research and Development Co.Ltd., priority 1999, dated 2006).

Legend:
[1] = test system: GVHD in B10.D2 → BALB/c recipients; test: Murine lethal GVHD model after bone marrow transplantation, B10.D2/nSnJ→BALB/c; format: in vivo, mice; details: for overall incidence of GVHD: 600 μg per injection (ip + sc), Cop 1 Batch I
Description: The murine GVHD model of B10.D2/nSnJ→BALB/c mice (both H-2^d) across minor histocompatibility barriers, was selected since it is similar to the MHC matched bone marrow transplantation in humans. For the induction of GVHD, 10×10^6 bone marrow and 100×10^6 spleen cells from B10.D2 mice were injected into lethally irradiated (8.0 Gy) BALB/c recipients. […] Recipient mice were 12–13 weeks at the time of transplantation.
Based on previous studies with Cop 1 in EAE (Sela et al., 1990; Teitelbaum et al., 1971; Teitelbaum et al., 1973) and class II-binding competitor peptides in GVHD (Schlegel et al., 1994), the dosage of 600 μg per injection was selected, half of which was administered intraperitoneally (ip), whereas the other half was given subcutaneously (sc). Treatment of BALB/c recipient mice was initiated on day −1, followed by daily injections for the first five weeks starting on day 0 after transplantation. The frequency of injections was tapered to three times per week for the subsequent two weeks and to two times per week for another two weeks and then discontinued. Throughout the experiment, copolymers and controls were administered once a week with incomplete Freund's adjuvant (IFA) ip as a depot dose (Schlegel et al., 1994). Treatment was discontinued 9 weeks after transplantation.
Mice were followed up daily for 140 days after bone marrow transplantation for signs of GVHD. Disease severity was assessed by mortality, loss of body weight, and by the extent of macroscopic skin involvement scored on a cumulative scale (from min O— max 8): head 1, neck 1, back (1/3, 2/3, 3/3) 1–3, front (1/3, 2/3, 3/3) 1–3. Skin biopsies were examined as previously described (Schlegel et al., 1994).
(ii) Effect of Copolymer 1 Treatment on the Incidence, Onset and Severity of GVHD. […] For the first five weeks after transplant mice were injected daily as outlined in Materials and Methods, followed by a tapering schedule over an additional four weeks.
(iii) Effect of Copolymer 1 treatment on survival. […]

[2] = test system: T cell proliferation in MHC-disparate mixed lymphocyte cultures; test: Mixed lymphocyte cultures across major histocompatibility barriers, six MHC-disparate strain combinations; format: cell-based, mice; details: 10–100 μg/well, all concentrations tested
Description: (§1) Responder cells for MLR reactions across major histocompatibility barriers were harvested from spleen of non-immunized mice while responder cells for MLR across minor histocompatibility barriers were harvested from mice which were preimmunized with irradiated (30 Gy) 50×10^6 stimulator spleen cells 21 days before. Responder cells (5×10^5 spleen cells per well) were tested for their proliferative response by plating with different amounts (2.5 to 10×10^5) of irradiated stimulator cells, in presence or absence of various peptide inhibitors (10–100 μg per well). Cultures were set up in 200 μl media containing 10% FCS in flat-bottom microtiter plates. After 4 days of incubation, cultures were pulsed with 1 μCi of [^3H]thymidine for an additional 16 hours. Results are represented as mean counts per minute (cpm) thymidine incorporation from triplicate cultures.

[3] = test system: proliferation of B10.PL (H-2u) responder cells to BALB/c stimulator cells; test: Mixed lymphocyte reaction (MLR) across major histocompatibility barriers, B10.PL vs BALB/c; format: cell-based, mice; details: 20 μg/well, Cop 1 Batch I, 1:1 ratio of responder to stimulator cells
Description: as §1
(§2) To investigate the feasibility of inhibition of MLR by Copolymer 1, an MLR system was developed in which Copolymer 1 was tested for its ability to inhibit the proliferation of B10.PL (H-2^u) responder cells to stimulator cells of either the same (PL/J) or different (BALB/c) H-2 haplotype. For comparison, the inhibitory MBP Ac 1-11[4A], MBP 35-47, a combination of Ac 1-1[4A]+MBP 35-47, MBP 89-101 and KM-core peptides, described in Schlegel et al. (1994), were used in the MLR experiments.
(§3) The inhibition obtained by Copolymer 1 was similar (in response to minor histocompatibility antigen) or even higher (in response to major histocompatibility antigen) than the inhibition obtained with the combination of the two synthetic peptides Ac 1-11[4A] and MBP 35-47, which specifically bind to the class II molecules I-A^u and the I-E^u, respectively. The molar efficiency of Copolymer 1 of M.W. 6000 is even higher since the molecular weight of the synthetic peptides is 4–5 fold lower.

[4] = test system: proliferation of B10.PL (H-2u) responder cells to PL/J stimulator cells; test: Mixed lymphocyte reaction (MLR) across minor histocompatibility barriers; format: cell-based, mice; details: 20 μg/well, Cop 1 Batch I, 1:1 ratio of responder to stimulator cells
Description: as §1, §2, §3

[5] = test system: function of transplanted thyroids; test: Thyroid graft assay for HVGD (125I absorption of thyroid transplanted in kidney capsule); format: in vivo, mice; details: B10.D2 → BALB/c, FK506 300 μg
Description: In this transplantation model for HVGD, thyroid glands from donor mice were transplanted in the kidney's capsules of recipient mice. One week later the transplanted mice were injected with ^125I, and the radioactivity of each kidney (the recipient or the untransplanted kidney) was measured after 20 hours. Δcpm was calculated by subtracting the ^125I absorbance of the untransplanted kidneys from the ^125I absorbance of the recipient kidneys in the same treatment. The mean function index (MFI) for treatment was calculated by dividing the mean Δcpm for the tested (Copolymer 1) treatment by the mean Δcpm for the PBS treatment. P values were obtained by the t test. This assay indicates objectively and quantitatively not only the graft survival, but also the function (iodine absorbance) of the transplanted thyroid tissue (Isakov et al., 1979).
The transplanted mice were treated daily with Copolymer 1 600 μg/day (300 μg ip+300 μg sc) in PBS solution, starting 7 days before transplantation. The first Cop 1 treatment on day −7 was injected sc in ICFA as a depot dose. Control mice were treated daily with PBS alone and PBS with ICFA on day −7 before transplantation.
To test the effect of Copolymer 1 treatment on the function of transplanted thyroids in the B10.D2→BALB/c model, thyroid glands from donors B10.D2 were transplanted in the kidney's capsules of BALB/c mice. After one week the transplanted mice were injected with ^125I, and the radioactivity of each kidney was measured 20 hours later. cpm was calculated by subtracting the ^125I absorbance of the untransplanted kidneys from the ^125I absorbance of the recipient kidneys in the same treatment. The mean function index (MFI) for each treatment was calculated by dividing the mean ^125I absorbance of (transplanted kidney-untransplanted kidney) in the tested treatment by the mean ^125I absorbance of (transplanted kidney-untransplanted kidney) in the PBS treatment, as follows: […]

skin graft rejection = test: Skin graft transplantation model for HVGD; format: in vivo, mice; details: B10.D2 → BALB/c, FK506 300 μg/day ip, 7 injections from day −2
Description: Recipient mice were dorsally transplanted with circular pieces of donor skin. Mice were inspected daily. Grafts were considered rejected when no viable donor epidermis remained. The results are expressed in mean survival time (MST). P values were obtained by analysis of variance (ANOVA).
[…] The first Cop 1 treatment on day −7 was injected sc in ICFA as a depot dose. Control mice were treated daily with PBS alone and PBS with ICFA on day −7 before transplantation.
Grafts were inspected daily. Rejection was considered positive when no viable donor epidermis remained. […]

Hen egg-white lysozyme [HEL]
long-term survival from lethal graft-versus-host disease ([1]; 600 μg per injection): did not improve long-term survival
overall incidence of GVHD ([1]; day 30 after transplant): 100%
overall incidence of GVHD ([1]; day 70 after transplant): 100%
median onset of GVHD ([1]; days after transplant, 600 μg per injection): 22 days
inhibitory effect on the MLC [2]: no or only minimal inhibitory effect

MBP 89-101: peptide VHFFKNIVTPRTP (SEQ ID NO:4) of myelin basic protein
inhibition of MLR [3]: did not induce any significant effect
inhibition of MLR [4]: did not induce any significant effect

KM-core: KMKMVAAHAKMKM (SEQ ID NO:3), based on the antigenic core sequence of ovalbumin 323–339 (KMKMVHAAHAKMKM)
inhibition of MLR [3]: did not induce any significant effect
inhibition of MLR [4]: did not induce any significant effect

C=CC[C@@H]1/C=C(\C)C[C@H](C)C[C@H](OC)[C@H]2O[C@@](O)(C(=O)C(=O)N3CCCC[C@H]3C(=O)O[C@H](/C(C)=C/[C@@H]3CC[C@@H](O)[C@H](OC)C3)[C@H](C)[C@@H](O)CC1=O)[C@H](C)C[C@@H]2OC [FK506]
Mean 125I Absorption, Transplanted Kidney (cpm) [5]: 3117 cpm
Mean 125I Absorption, Untransplanted Kidney (cpm) [5]: 693 cpm
cpm (transplanted minus untransplanted kidney) [5]: 2424 cpm
MFI (mean function index) ([5]; folds over PBS treatment): 3.1
MST ± SD (Mean Survival Time of skin graft) (skin graft rejection): 21.2 ± 4.3 days
MST ± SD (Mean Survival Time of skin graft) (skin graft rejection; listed as FK 506): 21.2 days
